Results as given in patent US8871280B1, “Compositions and methods for treating fungal activity in plants or soil” (The United States of America, as represented by the …, priority 2011, dated 2014).

How the values were obtained:
cucumber seeds = assay: Greenhouse assay of seed germination and phytotoxicity, soil treated with plant extract alone; conditions: in vivo
Protocol: Soil treatment: For each treatment, 300 g of dry greenhouse soli (Pro-mix, Premier Horticulture LTD, Red Hill, Pa.) was thoroughly mixed with Rhizoctonia inoculum and incubated for 15 days as described above. […] The infested soil treated with only the carrier solution served as an untreated control. Following the treatment, the soil was thoroughly stirred to mix the contents and incubated in a double polythene bag closed tightly in the dark at room temperature for four days for fumigation to occur. Following the incubation, the bag was opened to allow as much PE to dissipate as possible. This was done by sprinkling the surface soil with sterile water every other day, and stirring the soil once every day for seven days. For assay of effect on seed germination and phytotoxicity of the plant extracts, soil was treated with plant extract formulations alone.
Greenhouse studies: Treated soil from each treatment was distributed to 4-inch plastic pots into which 12 seeds of cucumbers (95-100% germination) were sown and lightly watered to keep soil moist. The treatments were color coded and pots were randomized across treatment. All plants were kept in a greenhouse between 20° C. (night) to 26° C. (day) with 14 h of light. There were three pots per treatment in each experiment, and the experiment was repeated three times. As positive control, a broad spectrum popular soil fungicide Banrot® 40 WP (The Scotts Company, Ohio) was used following manufacturer's recommendation to control the disease. Total number of seedlings without any sign of damping off in each pot was recorded and percentage of disease suppression were calculated four weeks after sowing cucumber seeds.

Rhizoctonia solani [1] = assay: Fungicidal vs fungistatic potential (regrowth of mycelial plugs on fresh PDA, 7 days); type: cell-based, Rhizoctonia solani AG-4, isolate Rs 23A
Protocol: The fungicidal and fungistatic potential of the PEs were determined by the method described by Garber and Houstan (Garber R. H., and B. R. Houston, Phytopathology, 49: 449-450 (1959)). In brief, three 5 mm diameter plugs were taken from the peripheral mycelial growth from each plate and placed in a fresh PDA plate. Following incubation at room temperature for 7 days, observations were recorded for new mycelial growth (fungistatic) or no mycelial growth (fungicidal). As control, peripheral mycelial plugs from soybean oil amended PDA plates were checked for fresh mycelial growth in fresh PDA plates.

Rhizoctonia solani [2] = assay: Poison food technique (contact action), mycelial growth inhibition in PDA; type: cell-based, Rhizoctonia solani AG-4, isolate Rs 23A; conditions: for PoisonB1 % inhibition: poison bed experiment 1; for PoisonB2 % inhibition: poison bed experiment 2
Protocol: (§1) Fungal isolate and preparation of inoculum: Rhizoctonia solani AG-4, isolate Rs 23A is a highly virulent pathogenic isolate which infects many vegetables, ornamentals and turfgrasses (Lewis, J. A., and G. C. Papavizas, Soil Biology and Biochemistry, 9:195-201 (1987)). The fungus was grown in potato dextrose agar (PDA) plates and fungal plugs from the freshly growing mycelium were mixed with moist sterilized cracked wheat in a 2 L flask for 15 days in dark at 22° C. (Lakshman, D. K., et al., Proceedings of the National Academy of Science, USA, 95: 6425-6429 (1998)). The infested wheat was air dried in a sterile hood for 3 days, blended in a homogenizer and sieved through a mesh and stored at 2° C. before soil inoculation. A dose response of the inocula was carried out by thoroughly mixing using 0.25, 0.5, 0.75, 1.0, 1.25 and 1.50 g inoculums per Kg dry weight potting soil plus sterile water to maintain 25-30% moisture and incubating at room temperature for two weeks before sowing cucumber (cv muncher) seeds with the infested soil. The percent germination and post-emergence damping off of cucumber seedlings were recorded. The lowest inoculums dose that induced 100% postemergence damping off was estimated to be 1 to 1.25 g/Kg soil for inocula prepared over the span of the experiments. For soil fumigation with plant extracts (PEs), each time the minimum inoculum dose giving rise to 100% damping off was used.
In vitro bioassays: Two in vitro bioassay methods were used to investigate the mycelial growth inhibitory potentials of PEs. In the poison food technique, test chemical/plant extract was mixed at concentrations of 15, 30, 45, 60, 75, and 150 μl per 20 ml autoclaved PDA at 50° C., poured on three sterile disposable plastic plates (100×15 mm, Fisherbrand) at 20 ml/plate and cooled to room temperature to solidify (Dhingra, O.D., and J. B. Sinclair, 1995, Basic Plant Pathology Methods, 2nd Edition, Lewis Publishers, Boca Raton and London). […] Each plate was seeded in the center with a 5 mm diameter agar disk of the freshly grown Rhizoctonia pathogen, mycelial side facing the medium, and sealed with stretched Parafilm® M (Fisher Scientific). The plates were incubated in the dark at room temperature and when the pathogen reached to the edge of the plates in the control treatment (soybean oil), radial measurement of fungal growth in plates treated with PEs were recorded by taking three measurements from each plate. The experiment was repeated one more time. The percent mycelial growth inhibition (MGI) due to PE was calculated using the following formula: […] where dc=Avg. radial growth in mm of pathogen in control plate; dt=avg. radial growth in mm of pathogen in treated plate.

Rhizoctonia solani [3] = assay: Greenhouse suppression of damping off of cucumber seedlings in R. solani infested soil amended with plant extract; type: in vivo, Rhizoctonia solani AG-4, isolate Rs 23A
Rhizoctonia solani [4] = assay: Filter disk fumigation method, mycelial growth inhibition on PDA; type: cell-based, Rhizoctonia solani AG-4, isolate Rs 23A; conditions: for Fumig1 % inhibition: fumigation experiment 1; for Fumig2 % inhibition: fumigation experiment 2
Protocol: as §1
In the second protocol, the chemical was kept not in direct contact with the fungus and we hypothesized that the plant extract will most likely influence the growth of the pathogen by fumigation action. In this approach, three sterile 15 mm filter paper (Whatman International Ltd, Maidstone, UK) disks were placed on the edge of each of three plates on the PDA. Each disk was impregnated in the center with various amounts (5-50 ul/disk) of the test solution/suspension. For negative control, only soybean oil was placed in the filter disk. […] The average radial growth was calculated and the experiment was repeated one more time. Percent growth inhibition was calculated as reported for poison bed assay.

C=CCc1ccc(OC)cc1
% Seed germination (+ PE only) (cucumber seeds): 75.00% | Avg. seed germination (+ PE only) (cucumber seeds): 9.00 | Effect (fumigation) (Rhizoctonia solani [1]; amount oil 15 μL/20 mL plate): S | Effect (poison bed, contact action) (Rhizoctonia solani [1]; amount oil 15 μL/20 mL plate): S | Effect (fumigation) (Rhizoctonia solani [1]; amount oil 30 μL/20 mL plate): S | Effect (poison bed, contact action) (Rhizoctonia solani [1]; amount oil 30 μL/20 mL plate): S | Effect (fumigation) (Rhizoctonia solani [1]; amount oil 45 μL/20 mL plate): S | Effect (poison bed, contact action) (Rhizoctonia solani [1]; amount oil 45 μL/20 mL plate): S | Effect (fumigation) (Rhizoctonia solani [1]; amount oil 60 μL/20 mL plate): S | Effect (poison bed, contact action) (Rhizoctonia solani [1]; amount oil 60 μL/20 mL plate): S | Effect (fumigation) (Rhizoctonia solani [1]; amount oil 75 μL/20 mL plate): S | Effect (poison bed, contact action) (Rhizoctonia solani [1]; amount oil 75 μL/20 mL plate): S | Effect (fumigation) (Rhizoctonia solani [1]; amount oil 150 μL/20 mL plate): S | Effect (poison bed, contact action) (Rhizoctonia solani [1]; amount oil 150 μL/20 mL plate): S | Fungicidal vs fungistatic nature (Rhizoctonia solani [1]; in vitro, fumigation and contact action): fungistatic | PoisonB1 % inhibition (Rhizoctonia solani [2]; amount oil 15 μL/20 mL plate): 94% | PoisonB2 % inhibition (Rhizoctonia solani [2]; amount oil 15 μL/20 mL plate): 13% | PoisonB1 % inhibition (Rhizoctonia solani [2]; amount oil 30 μL/20 mL plate): 100% | PoisonB2 % inhibition (Rhizoctonia solani [2]; amount oil 30 μL/20 mL plate): 56% | PoisonB1 % inhibition (Rhizoctonia solani [2]; amount oil 45 μL/20 mL plate): 100% | PoisonB2 % inhibition (Rhizoctonia solani [2]; amount oil 45 μL/20 mL plate): 92% | PoisonB1 % inhibition (Rhizoctonia solani [2]; amount oil 60 μL/20 mL plate): 100% | PoisonB2 % inhibition (Rhizoctonia solani [2]; amount oil 60 μL/20 mL plate): 100% | PoisonB1 % inhibition (Rhizoctonia solani [2]; amount oil 75 μL/20 mL plate): 100% | PoisonB2 % inhibition (Rhizoctonia solani [2]; amount oil 75 μL/20 mL plate): 100% | PoisonB1 % inhibition (Rhizoctonia solani [2]; amount oil 150 μL/20 mL plate): 100% | PoisonB2 % inhibition (Rhizoctonia solani [2]; amount oil 150 μL/20 mL plate): 100% | Inhibition of R. solani growth by contact (poison bed assay), in words (Rhizoctonia solani [2]; in vitro, PDA): potent inhibitors | % Disease suppression (+ PE + R. solani) (Rhizoctonia solani [3]; cucumber damping off, soil amendment at 0.3% (v/w), four weeks after sowing): 58.33% | Avg. seed Germination (+ PE + R. solani) (Rhizoctonia solani [3]; cucumber, 12 seeds sown per pot, infested soil amended with 0.3% PE): 7.00 | Fumig1 % inhibition (Rhizoctonia solani [4]; amount oil 15 μL/20 mL plate): 95% | Fumig2 % inhibition (Rhizoctonia solani [4]; amount oil 15 μL/20 mL plate): 97% | Fumig1 % inhibition (Rhizoctonia solani [4]; amount oil 30 μL/20 mL plate): 97% | Fumig2 % inhibition (Rhizoctonia solani [4]; amount oil 30 μL/20 mL plate): 102% | Fumig1 % inhibition (Rhizoctonia solani [4]; amount oil 45 μL/20 mL plate): 97% | Fumig2 % inhibition (Rhizoctonia solani [4]; amount oil 45 μL/20 mL plate): 102% | Fumig1 % inhibition (Rhizoctonia solani [4]; amount oil 60 μL/20 mL plate): 97% | Fumig2 % inhibition (Rhizoctonia solani [4]; amount oil 60 μL/20 mL plate): 100% | Fumig1 % inhibition (Rhizoctonia solani [4]; amount oil 75 μL/20 mL plate): 98% | Fumig2 % inhibition (Rhizoctonia solani [4]; amount oil 75 μL/20 mL plate): 103% | Fumig1 % inhibition (Rhizoctonia solani [4]; amount oil 150 μL/20 mL plate): 99% | Fumig2 % inhibition (Rhizoctonia solani [4]; amount oil 150 μL/20 mL plate): 103% | Inhibition of R. solani growth by fumigation action, in words (Rhizoctonia solani [4]; in vitro, filter disk): potent inhibitors

C=CC(C)(O)CCC=C(C)CCC=C(C)C (mixture of isomers) [Nerolidol]
Effect (fumigation) (Rhizoctonia solani [1]; amount oil 15 μL/20 mL plate): S | Effect (poison bed, contact action) (Rhizoctonia solani [1]; amount oil 15 μL/20 mL plate): S | Effect (fumigation) (Rhizoctonia solani [1]; amount oil 30 μL/20 mL plate): S | Effect (poison bed, contact action) (Rhizoctonia solani [1]; amount oil 30 μL/20 mL plate): S | Effect (fumigation) (Rhizoctonia solani [1]; amount oil 45 μL/20 mL plate): S | Effect (poison bed, contact action) (Rhizoctonia solani [1]; amount oil 45 μL/20 mL plate): S | Effect (fumigation) (Rhizoctonia solani [1]; amount oil 60 μL/20 mL plate): S | Effect (poison bed, contact action) (Rhizoctonia solani [1]; amount oil 60 μL/20 mL plate): S | Effect (fumigation) (Rhizoctonia solani [1]; amount oil 75 μL/20 mL plate): S | Effect (poison bed, contact action) (Rhizoctonia solani [1]; amount oil 75 μL/20 mL plate): S | Effect (fumigation) (Rhizoctonia solani [1]; amount oil 150 μL/20 mL plate): S | Effect (poison bed, contact action) (Rhizoctonia solani [1]; amount oil 150 μL/20 mL plate): S | PoisonB1 % inhibition (Rhizoctonia solani [2]; amount oil 15 μL/20 mL plate): 71% | PoisonB2 % inhibition (Rhizoctonia solani [2]; amount oil 15 μL/20 mL plate): 78% | PoisonB1 % inhibition (Rhizoctonia solani [2]; amount oil 30 μL/20 mL plate): 78% | PoisonB2 % inhibition (Rhizoctonia solani [2]; amount oil 30 μL/20 mL plate): 81% | PoisonB1 % inhibition (Rhizoctonia solani [2]; amount oil 45 μL/20 mL plate): 83% | PoisonB2 % inhibition (Rhizoctonia solani [2]; amount oil 45 μL/20 mL plate): 87% | PoisonB1 % inhibition (Rhizoctonia solani [2]; amount oil 60 μL/20 mL plate): 84% | PoisonB2 % inhibition (Rhizoctonia solani [2]; amount oil 60 μL/20 mL plate): 90% | PoisonB1 % inhibition (Rhizoctonia solani [2]; amount oil 75 μL/20 mL plate): 87% | PoisonB2 % inhibition (Rhizoctonia solani [2]; amount oil 75 μL/20 mL plate): 92% | PoisonB1 % inhibition (Rhizoctonia solani [2]; amount oil 150 μL/20 mL plate): 89% | PoisonB2 % inhibition (Rhizoctonia solani [2]; amount oil 150 μL/20 mL plate): 99% | Fumig1 % inhibition (Rhizoctonia solani [4]; amount oil 15 μL/20 mL plate): 0% | Fumig2 % inhibition (Rhizoctonia solani [4]; amount oil 15 μL/20 mL plate): 0% | Fumig1 % inhibition (Rhizoctonia solani [4]; amount oil 30 μL/20 mL plate): 0% | Fumig2 % inhibition (Rhizoctonia solani [4]; amount oil 30 μL/20 mL plate): 40% | Fumig1 % inhibition (Rhizoctonia solani [4]; amount oil 45 μL/20 mL plate): 0% | Fumig2 % inhibition (Rhizoctonia solani [4]; amount oil 45 μL/20 mL plate): 42% | Fumig1 % inhibition (Rhizoctonia solani [4]; amount oil 60 μL/20 mL plate): 0% | Fumig2 % inhibition (Rhizoctonia solani [4]; amount oil 60 μL/20 mL plate): 41% | Fumig1 % inhibition (Rhizoctonia solani [4]; amount oil 75 μL/20 mL plate): 0% | Fumig2 % inhibition (Rhizoctonia solani [4]; amount oil 75 μL/20 mL plate): 42% | Fumig1 % inhibition (Rhizoctonia solani [4]; amount oil 150 μL/20 mL plate): 0% | Fumig2 % inhibition (Rhizoctonia solani [4]; amount oil 150 μL/20 mL plate): 41%
